Earlier results in patent US20100151056A1, “DIETARY SUPPLEMENTS FOR DECREASING THE LATENT FOREIGN DNA LOAD” (priority 2008, published 2010).
Read-outs that look alike come from different tables or passages of the source.

Legend:
[1] = system: EBV immediate-early protein Rta in P3HR1 cells
[2] = system: HBV cccDNA in HepG2-N10 cells; conditions: 22.9 ug/ml
[3] = system: KSHV latent genes (LANA-1, v-cyclin, v-FLIP)
LT1/LT2 promoter = conditions: BJAB cells, GA-treated vs untreated
[4] = system: LANA-1, v-cyclin, and v-FLIP proteins
cdk6 = conditions: BC-1, BCBL-1 and BC-3 cells, Western blot
caspase cascade = conditions: KSHV-positive B cells untreated and GA-treated, ELISA
AIF = conditions: KSHV-positive B cells, GA for 4 days
[5] = system: KSHV-positive and uninfected B cells
B cells = conditions: 3 and 4 mM
[6] = system: Epstein-Barr virus in Raji cells; conditions: Raji cells superinfected with P2HR1 (LS) virus; read-out: concentration inhibiting EBV genome copy number and antigen expression by 50% (EC50)

O=C(O[C@@H]1Cc2c(O)cc(O)cc2O[C@@H]1c1cc(O)c(O)c(O)c1)c1cc(O)c(O)c(O)c1 [EGCG, Epigallocatechin gallate]
P3HR1 cells expressing Rta ([1]; 70 mM EGCG): 9.8% | P3HR1 cells expressing Rta ([1]; 100 mM EGCG): 0.5% | reduction of HBV cccDNA concentration [2]: 60%

CC1(C)[C@@H](O[C@H]2O[C@H](C(=O)O)[C@@H](O)[C@H](O)[C@H]2O[C@@H]2O[C@H](C(=O)O)[C@@H](O)[C@H](O)[C@H]2O)CC[C@]2(C)[C@H]3C(=O)C=C4[C@@H]5C[C@@](C)(C(=O)O)CC[C@]5(C)CC[C@@]4(C)[C@]3(C)CC[C@@H]12 [GA, glycyrrhizic acid]
LT1 transcripts (LANA-1 probe) ([3]; GA 3 and 4 mM, BCBL-1 2 days, BC-3 3 days, BC-2 and BC-1 6 days): dose-dependent decrease | LT2 transcripts (v-FLIP and v-cyclin probes) ([3]; GA-treated KSHV-positive B cells): increase | LT1/LT2 promoter activity (luciferase expression) (LT1/LT2 promoter): does not affect | LANA-1 expression ([4]; KSHV positive cells, BCBL-1, BC-3, BC-1 treated 2, 3, 6 days): decreased | cells over-expressing v-cyclin ([4]; KSHV-positive B cells following GA treatment, FACS): 35-50% | increase of cdk6 expression (cdk6): 8- to 11 fold | apoptosis in BJAB cells (KSHV-positive B cells; KSHV-negative BJAB control cells): did not result in apoptosis | apoptosis (TUNEL-positive cells) (KSHV-positive B cells; KSHV-positive cells, FACS): 80-95% | disruption of mitochondrial membranes or DNA condensation (KSHV-positive B cells; uninfected B cells treated with GA): no disruptions | activation of the caspase cascade (caspase cascade): no activation | AIF localisation (AIF): diffuse nuclear staining | phosphorylated form of p53 (p53; BC-3 cells transfected with pLPCX/LANA-1, 4 mM GA for 4 days): very low concentration | p53 phosphorylated at Ser15 (p53; KSHV-positive B cells following GA): high concentration | catalase activity increase (catalase; BC-1): 3 fold | catalase activity increase (catalase; BC-3): 4 fold | catalase activity increase (catalase; BCBL-1): 2 fold | cells blocked in G1 ([5]; KSHV-positive B cells, after 6 days GA): 99% | cells blocked in G1 ([5]; uninfected cells, untreated or following GA): 25-50% | toxicity at the tested levels (B cells): not being toxic | EC50 [6]: ~5 µM

CCCCCCCCCCCCCC(=O)O[C@@H]1[C@@H](C)[C@@]2(O)[C@@H](C=C(CO)C[C@]3(O)C(=O)C(C)=C[C@@H]23)[C@@H]2C(C)(C)[C@]12OC(C)=O [TPA, 12-O-tetradecanoyl-phorbol-13-acetate, reference compound]
disruption of mitochondrial membranes or DNA condensation (KSHV-positive B cells; TPA treatment (latent to lytic switch)): did not disrupt

CC(/C=C/C(=O)NO)=C\[C@@H](C)C(=O)c1ccc(N(C)C)cc1 [TSA, reference compound]
P3HR1 cells expressing Rta ([1]; following treatment with TSA): 23.4%

C[C@H]1[C@H](OC(=O)CCC(=O)O)O[C@@H]2O[C@@]3(C)CC[C@H]4[C@H](C)CC[C@@H]1[C@@]24OO3 [artesunate, Artesunate]
viremia after completion of therapy (CMV; 76 days after completion of therapy): no increase in viremia | viral decay T 1/2 (CMV; CMV load kinetics during treatment): 22 to 45.6 h | decrease of viral DNA load (CMV; by day 7, oral 100 mg/day): 1.7-2.1 log | adverse effects (CMV; first 30 days of treatment): no adverse effects | time to rapid reduction in viral load and improved hematopoiesis (CMV; oral 100 mg/day): ≤ 10 days

Nc1nc(O)c2ncn(COC(CO)CO)c2n1 [ganciclovir]
reduction of viral DNA load (CMV; by day 7, initial ganciclovir treatment of the same patient): 1 log
